Holding throughout (format): in vivo
In data set [1] the test system is susceptible or neonicotinoid-resistant Myzus persicae population. The experiment in a line: Pea seedling spray test, mortality of susceptible and neonicotinoid-resistant populations (Example 2). The note with it: ratio of rates for 80% mortality, resistant versus susceptible Myzus persicae; BP80 = lowest known rate providing 80% or more mortality; 6 days after treatment; pea seedlings. On the procedure: Pea seedlings, infested with a susceptible or neonicotinoid-resistant Myzus persicae population of mixed ages, respectively, are treated with the test solutions (200, 50, 12.5, 3, 0.8, 0.2, 0.05 ppm a.i.) in a turn table spray chamber. 6 days after treatment, samples are checked for mortality.
The results of the resistance factor at BP80 (lowest known rate providing 80% or more mortality) are indicated below.

Data set [2] relates to neonicotinoid insecticide resistant aphid strain. Kind of data set: Leaf disc spray bioassay on chinese cabbage, aphid mortality (Example 1), resistant strain. The note with it: resistant aphid strain from peach orchard, Avignon region, mixed age aphids, mortality 72 hours after treatment. As to the method: (§1) 5 cm leaf discs were taken from fully expanded chinese cabbage leaves and placed with the underside facing upwards onto water agar in 5 cm Petri dishes. The leaf discs are infested with between 30 and 40 mixed age aphids 24 hours prior to insecticide treatment. The leaf surface is sprayed with the appropriate test solutions in a Burkhard Potter Tower at an approximate water volume of […]. Test containers are stored at 21° C., 60% RH and 16:8 light/dark. Aphids were assessed for mortality 72 hours after treatment.

Data set [3] relates to neonicotinoid insecticide susceptible strain 4106A. The experiment in a line: Leaf disc spray bioassay on chinese cabbage, aphid mortality (Example 1), susceptible strain. As to conditions: susceptible strain 4106A (Rothamsted Research), mixed age aphids, mortality 72 hours after treatment. As to the method:
as §1

The structures appear in SMILES notation. Bounds are passed on as bounds.

As to `NC(=O)c1cnccc1C(F)(F)F` [158062-71-6], the “resistance factor at BP80” value in data set [1] was 4.
Turning to `CN/C(=N\[N+](=O)[O-])NCc1cnc(Cl)s1` [clothianidin], the “LC50 with 95% confidence limit, resistant strain” value in data set [2] was 904 (478-3616) ppm. For the same compound, the “LC50 with 95% confidence limit, susceptible strain” value in data set [3] is on record as 0.33 (0.28-0.38) ppm.
On to `N#CCNC(=O)c1cnccc1C(F)(F)F` [flonicamid], for which the “LC50 with 95% confidence limit, resistant strain” value in data set [2] was 2.74 (0.53-6.81) ppm. Also, the “LC50 with 95% confidence limit, susceptible strain” value in data set [3] is 1.65 (1.3-2.09) ppm.
Take `Cc1noc(-c2cnccc2C(F)(F)F)n1` [276684-49-2]: the “resistance factor at BP80” value in data set [1] is reported as less than 1.
As to `C/C(=N\C#N)N(C)Cc1ccc(Cl)nc1` [acetamiprid], the “LC50 with 95% confidence limit, resistant strain” value in data set [2] is listed as 49.3 (35.2-72.0) ppm. In addition, the “LC50 with 95% confidence limit, susceptible strain” value in data set [3] is on record as 0.55 (0.51-0.59) ppm.
On to `N#C/N=C1\SCCN1Cc1ccc(Cl)nc1` [thiacloprid], for which, in data set [2], the “LC50 with 95% confidence limit, resistant strain” value is given as more than 1000 ppm. In addition, the “LC50 with 95% confidence limit, susceptible strain” value in data set [3] is listed as 0.38 (0.34-0.42) ppm.
For `CN/C(=N/CC1CCOC1)N[N+](=O)[O-]` (stereo not drawn) [dinotefuran], in that order: 538 (435-696) ppm and 9.95 (8.21-12.5) ppm.
Consider `CN(O)C(=O)c1cnccc1C(F)(F)F` [323180-93-4], for which the “resistance factor at BP80” value in data set [1] is “Not adequate control for 80% mortality on sensitive & resistance strains”.
The same measure, in the same setting: in the case of `O=C(NCc1ccccn1)c1cnccc1C(F)(F)F` [164149-37-5] it was 4; in that of `CN(C)C(=O)c1cnccc1C(F)(F)F` [158063-01-5], 1.7.
Take `CCN(Cc1ccc(Cl)nc1)/C(=C/[N+](=O)[O-])NC` [nitenpyram]: in data set [2], the “LC50 with 95% confidence limit, resistant strain” value was 237 (93.7-3566) ppm. Moreover, the “LC50 with 95% confidence limit, susceptible strain” value in data set [3] is listed as 1.26 (1.03-1.61) ppm.
Regarding `CO/N=C(\C)CNC(=O)c1cnccc1C(F)(F)F`, the “resistance factor at BP80” value in data set [1] is 4.
Turning to `CC(C)N1CN=C(c2cnccc2C(F)(F)F)OC1=O` [1098412-17-9], the “resistance factor at BP80” value in data set [1] turned out to be 1.
The same measure, in the same setting: next, `O=C(N=S(c1ccccc1)c1ccccc1)c1cnccc1C(F)(F)F` [362724-14-9]: 4.
The same measure, in the same setting: next, `O=C(NCc1ccc(Cl)cc1)c1cnccc1C(F)(F)F` [158063-19-5]: more than 16.
Turning to `O=C(c1cnccc1C(F)(F)F)N(O)Cc1ccccc1` [323181-02-8], in data set [1], the “resistance factor at BP80” value is on record as more than 1.
Same read-out and setting: next, `O=C(NCN1CCCC1)c1cnccc1C(F)(F)F` [158063-50-4]: 1.
Consider `CN1COCN(Cc2cnc(Cl)s2)/C1=N/[N+](=O)[O-]` [thiamethoxam], for which, in data set [2], the “LC50 with 95% confidence limit, resistant strain” value is 148 (128-172) ppm. The “LC50 with 95% confidence limit, susceptible strain” value in data set [3] is recorded as 0.35 (0.3-0.41) ppm. Further, the “resistance factor at BP80” value in data set [1] is listed as more than 250.
`CNC(=O)c1cnccc1C(F)(F)F` [158062-76-1]: in data set [1], the “resistance factor at BP80” value amounted to 1.

The values above are taken from patent US20130231334A1, “METHODS OF CONTROLLING NEONICOTINOID RESISTANT APHIDS” (SYNGENTA CROP PROTECTION LLC, priority 2010, published 2013).
